The values that follow come from ChEMBL document CHEMBL1201862, “PubChem BioAssay data set” (2004).

Among the test systems are Malme-3M; OVCAR-4; SK-OV-3; RXF 393; T47D; K562; TK-10; A549; MDA-MB-231; MCF7; 786-0; SK-MEL-2; MDA-N; HCC 2998; NCI-H522; OVCAR-3; SF-539; RPMI-8226; SNB-19; SNB-75.
Holding throughout (assay): growth of human tumour cells (NCI), 48 h

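96-well plates; 48 h exposure; 5 concentrations. Endpoints by linear interpolation between flanking doses. Not reached: highest tested concentration assigned. GI50: concentration for 50% inhibition of growth.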 The source made the active and inactive calls. Rule as the data show it: active = GI50 up to about 1.1 µM and inactive = higher.

Turning to `CC1(C)Oc2ccc3c(=O)cc(-c4ccccc4)oc3c2C1C(=O)O` (stereo unspecified), the GI50 in the assay on Malme-3M, with OVCAR-4, in the assay with SK-OV-3, in the assay on RXF 393, with T47D and in the assay on K562 was > 100 µM (inactive) each time. Besides, the GI50 in the assay with TK-10, in the assay on A549, in the assay with MDA-MB-231, in the assay on MCF7, in the assay with 786-0 and in the assay with SK-MEL-2 was > 100 µM (inactive) each time. In addition, the GI50 in the assay with MDA-N, with HCC 2998, in the assay on NCI-H522, with OVCAR-3 and with SF-539 was > 100 µM (inactive) in each case.
On to `CC(C)=CCNc1ncnc2c1ncn2CCC(=O)OC(C)(C)C`, for which the GI50 is > 100 µM (inactive) in the assay on Malme-3M; 4.81 µM (inactive) with OVCAR-4; 26.2 µM (inactive) in the assay on SK-OV-3; 72.3 µM (inactive) in the assay with RPMI-8226; 36.1 µM (inactive) in the assay with RXF 393; 24.8 µM (inactive) in the assay on T47D. The GI50 with K562 is 18.4 µM (inactive); in the assay on TK-10, > 100 µM (inactive); with A549, > 100 µM (inactive); with MDA-MB-231, > 100 µM (inactive); in the assay on SNB-19, > 100 µM (inactive); with MCF7 it was > 100 µM (inactive). The GI50 in the assay on 786-0, with MDA-N, in the assay on HCC 2998, in the assay on NCI-H522, in the assay on OVCAR-3 and in the assay on SF-539 was > 100 µM (inactive) throughout. Moreover, the GI50 in the assay on SNB-75 was 13 µM (inactive).
`CC[C@]1(Cc2ccc(OC)c(OC)c2)CN(S(=O)(=O)c2ccc(C)cc2)C[C@@H]1OC(C)=O`: the GI50 is > 100 µM (inactive) with Malme-3M; > 100 µM (inactive) with OVCAR-4; 64.6 µM (inactive) in the assay with SK-OV-3; > 100 µM (inactive) with RPMI-8226; > 100 µM (inactive) with RXF 393; 58.5 µM (inactive) in the assay with T47D. The GI50 was > 100 µM (inactive) in the assay with K562; > 100 µM (inactive) with TK-10; 54.8 µM (inactive) with A549; > 100 µM (inactive) in the assay with MDA-MB-231; > 100 µM (inactive) in the assay with SNB-19; > 100 µM (inactive) in the assay with MCF7. Moreover, the GI50 with 786-0 was 39.2 µM (inactive); in the assay with SK-MEL-2 it was > 100 µM (inactive); in the assay on MDA-N it was > 100 µM (inactive); in the assay with HCC 2998 it was > 100 µM (inactive); in the assay on OVCAR-3 it was 67.8 µM (inactive); with SF-539, 69.5 µM (inactive). The GI50 in the assay with SNB-75 was 41.9 µM (inactive).
On to `COc1ccc(C2=NN(C(=O)c3ccc(Cl)cc3)C(O)(c3cc(F)c(Cl)cc3Cl)C2)cc1OC` (stereo unspecified), for which the GI50 with OVCAR-4 is 18 µM (inactive); in the assay on SK-OV-3 it was > 100 µM (inactive); with RPMI-8226 it was 6.03 µM (inactive); in the assay on RXF 393, 6.17 µM (inactive); in the assay with T47D, 6.27 µM (inactive); in the assay on K562, 5.82 µM (inactive). Further, the GI50 with TK-10 was 86.7 µM (inactive); in the assay on MDA-MB-231, > 100 µM (inactive); with MCF7, 4.61 µM (inactive); with 786-0 it was 17.8 µM (inactive); in the assay on SK-MEL-2 it was 78.7 µM (inactive); in the assay with MDA-N it was 15.5 µM (inactive). Besides, the GI50 in the assay on HCC 2998 is 8.24 µM (inactive); in the assay with NCI-H522, 6.68 µM (inactive); in the assay with OVCAR-3 it was 41.8 µM (inactive); in the assay on SF-539 it was > 100 µM (inactive).
With `CCCN(CCCc1ccccc1)CCc1ccc2[nH]c(=S)[nH]c2c1`, the GI50 in the assay with Malme-3M is 12.9 µM (inactive); in the assay on OVCAR-4, 76.4 µM (inactive); in the assay on SK-OV-3, 53.8 µM (inactive); in the assay on RPMI-8226 it was 12.4 µM (inactive); with RXF 393, 11.2 µM (inactive); with T47D, 12.1 µM (inactive). Further, the GI50 is 2.02 µM (inactive) with K562; 71.1 µM (inactive) with TK-10; 34 µM (inactive) with A549; 14.7 µM (inactive) in the assay on MDA-MB-231; 26.1 µM (inactive) in the assay on SNB-19; 28.2 µM (inactive) in the assay on MCF7. The GI50 with 786-0 was 12.6 µM (inactive); in the assay with SK-MEL-2 it was 19.3 µM (inactive); with MDA-N, 19.2 µM (inactive); with HCC 2998, 13.3 µM (inactive); in the assay with OVCAR-3, 37.1 µM (inactive); in the assay on SNB-75, 21.1 µM (inactive).
In the case of `c1ccc([C@@H]2N[C@@]3(CO[Si](c4ccccc4)(c4ccccc4)c4ccccc4)CC[C@H]4CN[C@@H]2[C@H]43)cc1`, the GI50 was 0.0598 µM (active) in the assay with Malme-3M; 13.6 µM (inactive) in the assay on OVCAR-4; 16.2 µM (inactive) in the assay on SK-OV-3; 2.76 µM (inactive) in the assay with RPMI-8226; 4.3 µM (inactive) in the assay on RXF 393; 4.07 µM (inactive) with T47D. Besides, the GI50 is 3.33 µM (inactive) with K562; 16.7 µM (inactive) in the assay on TK-10; 12.3 µM (inactive) in the assay on A549; 11.8 µM (inactive) in the assay on MDA-MB-231; 17.2 µM (inactive) with SNB-19; 2.99 µM (inactive) in the assay on MCF7. The GI50 in the assay on 786-0 is 12.4 µM (inactive); with SK-MEL-2 it was 17.9 µM (inactive); with MDA-N, 3.58 µM (inactive); with HCC 2998, 1.66 µM (inactive); with NCI-H522, 3.43 µM (inactive); with OVCAR-3, 13.8 µM (inactive). Besides, in the assay on SF-539, the GI50 was 15.3 µM (inactive).
Regarding `COc1c(-c2nc3ccc(N4CCN(C)CC4)nc3[nH]2)cc(OC)c2[nH]c(CO)nc12`, the GI50 is > 100 µM (inactive) with Malme-3M; 70 µM (inactive) in the assay with OVCAR-4; > 100 µM (inactive) with SK-OV-3; > 100 µM (inactive) in the assay with RXF 393; 37.1 µM (inactive) in the assay with T47D; 58.1 µM (inactive) in the assay on K562. In addition, the GI50 in the assay with TK-10 is > 100 µM (inactive); with A549 it was > 100 µM (inactive); in the assay on MDA-MB-231, 44.1 µM (inactive); with SNB-19 it was 42.6 µM (inactive); in the assay with MCF7 it was 11.2 µM (inactive); with 786-0 it was 69.3 µM (inactive). Moreover, the GI50 in the assay with SK-MEL-2 was 32 µM (inactive); in the assay on MDA-N, > 100 µM (inactive); in the assay on HCC 2998, 38.2 µM (inactive); in the assay with NCI-H522, 52.4 µM (inactive); in the assay with OVCAR-3 it was 39.3 µM (inactive); in the assay with SF-539, 22.5 µM (inactive). Also, in the assay with SNB-75, the GI50 is 95.5 µM (inactive).
As for `O=[N+]([O-])c1cc(-[n+]2cc([O-])on2)ccc1F`, the GI50 with Malme-3M is 14.7 µM (inactive); with OVCAR-4, 11.9 µM (inactive); in the assay with SK-OV-3, 20.4 µM (inactive); with RPMI-8226 it was 8.97 µM (inactive); with RXF 393 it was 14.1 µM (inactive); in the assay on T47D, 2.49 µM (inactive). Further, the GI50 in the assay on K562 is 34.4 µM (inactive); in the assay on TK-10, 18.4 µM (inactive); in the assay on A549, 17 µM (inactive); in the assay on MDA-MB-231, 18.7 µM (inactive); in the assay on SNB-19, 7.82 µM (inactive); in the assay with MCF7, 12.8 µM (inactive). Further, the GI50 in the assay with 786-0 was 11.7 µM (inactive); with SK-MEL-2 it was 15.6 µM (inactive); in the assay on MDA-N, 16.1 µM (inactive); in the assay on HCC 2998, 14.4 µM (inactive); with NCI-H522 it was 9.02 µM (inactive); with OVCAR-3, 17 µM (inactive). Moreover, the GI50 in the assay on SNB-75 was 13.7 µM (inactive).
